The subject of this assay is VEEV TrD infected cells, CPE inhibition. Briefly: VEEV Trinidad donkey strain, infected cells, CPE inhibition, confirmatory IC50 (AID 602484).

One may read the IC50 as the point on the concentration scale where inhibition reaches its midpoint. As to `CCN1CCN(Cc2nc3ccc([N+](=O)[O-])cc3c(=O)n2-c2ccccc2F)CC1`, the 50% inhibitory concentration (IC50) was 370 nM.
With `CN(C(=O)Cc1cccs1)c1nc2c(s1)CCCC2`, the half-maximal inhibitory concentration (IC50) was 2030 nM.
With `CN1CCN(Cc2nc3ccc([N+](=O)[O-])cc3c(=O)n2-c2ccccc2F)CC1`, the IC50 is 270 nM.

These data come from PubChem BioAssay AID602484 (Southern Research Specialized Biocontainment Screening …, 2012).
